Experimental data reported in patent publication US20170157010A1, “METHODS AND COMPOSITIONS FOR TREATMENT OF DISORDERS ASSOCIATED WITH DAMAGE INDUCED BY FREE RADICALS” (Glycadia, Inc., priority 2015, published 2017).
“And” between values parts separate entries of the source, which are not always exact repeats. Identical values can stand only once.

Legend:
[1] = ABTS radical cation free radical scavenging (bleaching of absorbance at 734 nm); assay type: biochemical; conditions: ABTSY+ 450 micromolar, pH 7.4
Excerpt: A radical cation of 2,2′-azino-bis(3-ethylbenzthiazoline-6-sulfonic acid) diammonium salt (ABTS) was generated by oxidation with manganese dioxide, forming the blue-green radical cation ABTSY+ with spectrophotometric absorbance at 734 nanommeters (nm). The reaction was initiated by the addition of 23CPPA (5-40 micromolar) to ABTSY+ (450 micromolar) in phosphate buffer (75 millimolar, pH 7.4) and decay of the blue-green radical cation absorbance was monitored over time. Absorbance profiles were obtained with incubation in phosphate buffer (75 millimolar, pH 7.4) as control. The reaction of anti-oxidants with stable free radicals such as ABTSY+ that is generated from ABTS measures their free radical scavenging capacities.

[2] = Ultraviolet absorption spectrum; assay type: physicochemical
Excerpt: Ultraviolet (UV) absorption peaks of 2-(3-chlorophenylamino)phenylacetic acid at 211 and 283 nm, encompassing wavelength range of medium wave UVB (315-280 nm) and short wave UVC (280-190 nm).

[3] = Brain penetration following oral administration in rats (HPLC/MS/MS); assay type: in vivo; conditions: rat; sodium salt by gavage 15 and 60 mg/kg
Procedure: Rat hemi brains were obtained 1,4 and 6 hours after administration by gavage of the sodium salt of 23CPPA at doses of 15 and 60 mg/kg and were mixed with two equivalents of water and homogenized. The resulting homogenate was extracted with acetonitrile containing internal standard and concentrations of the compound were analyzed by high pressure liquid chromatography/two stage mass spectrometry (HPLC/MS/MS). Plasma samples also were collected from the same rats at these time points for measurement of plasma concentrations of the compound.

O=C(O)Cc1ccccc1Nc1cccc(Cl)c1 [23CPPA, 2-[(3-chlorophenyl)amino] phenylacetic acid]
Decay (% of starting absorbance) ([1]; 23CPPA 5 micromolar, 1 minute): 74 % of starting absorbance | Decay (% of starting absorbance) ([1]; 23CPPA 5 micromolar, 2 minutes): 72 % of starting absorbance | Decay (% of starting absorbance) ([1]; 23CPPA 5 micromolar, 3 minutes): 69 % of starting absorbance | Decay (% of starting absorbance) ([1]; 23CPPA 5 micromolar, 4 minutes): 67 % of starting absorbance | Decay (% of starting absorbance) ([1]; 23CPPA 5 micromolar, 5 minutes): 65 % of starting absorbance | Decay (% of starting absorbance) ([1]; 23CPPA 5 micromolar, 6 minutes): 63 % of starting absorbance | Decay (% of starting absorbance) ([1]; 23CPPA 5 micromolar, 7 minutes): 61 % of starting absorbance | Decay (% of starting absorbance) ([1]; 23CPPA 5 micromolar, 8 minutes): 60 % of starting absorbance | Decay (% of starting absorbance) ([1]; 23CPPA 5 micromolar, 9 minutes): 58 % of starting absorbance | Decay (% of starting absorbance) ([1]; 23CPPA 5 micromolar, 10 minutes): 56 % of starting absorbance | Decay (% of starting absorbance) ([1]; 23CPPA 5 micromolar, 11 minutes): 55 % of starting absorbance | Decay (% of starting absorbance) ([1]; 23CPPA 5 micromolar, 12 minutes): 53 % of starting absorbance | Decay (% of starting absorbance) ([1]; 23CPPA 5 micromolar, 13 minutes): 52 % of starting absorbance | Decay (% of starting absorbance) ([1]; 23CPPA 5 micromolar, 14 minutes): 51 % of starting absorbance | Decay (% of starting absorbance) ([1]; 23CPPA 5 micromolar, 15 minutes): 49 % of starting absorbance | Decay (% of starting absorbance) ([1]; 23CPPA 10 micromolar, 1 minute): 57 % of starting absorbance | Decay (% of starting absorbance) ([1]; 23CPPA 10 micromolar, 2 minutes): 56 % of starting absorbance | Decay (% of starting absorbance) ([1]; 23CPPA 10 micromolar, 3 minutes): 53 % of starting absorbance | Decay (% of starting absorbance) ([1]; 23CPPA 10 micromolar, 4 minutes): 52 % of starting absorbance | Decay (% of starting absorbance) ([1]; 23CPPA 10 micromolar, 5 minutes): 51 % of starting absorbance | Decay (% of starting absorbance) ([1]; 23CPPA 10 micromolar, 6 minutes): 50 % of starting absorbance | Decay (% of starting absorbance) ([1]; 23CPPA 10 micromolar, 7 minutes): 48 % of starting absorbance | Decay (% of starting absorbance) ([1]; 23CPPA 10 micromolar, 8 minutes): 47 % of starting absorbance | Decay (% of starting absorbance) ([1]; 23CPPA 10 micromolar, 9 minutes): 46 % of starting absorbance | Decay (% of starting absorbance) ([1]; 23CPPA 10 micromolar, 10 minutes): 44 % of starting absorbance | Decay (% of starting absorbance) ([1]; 23CPPA 10 micromolar, 11 minutes): 44 % of starting absorbance | Decay (% of starting absorbance) ([1]; 23CPPA 10 micromolar, 12 minutes): 43 % of starting absorbance | Decay (% of starting absorbance) ([1]; 23CPPA 10 micromolar, 13 minutes): 43 % of starting absorbance | Decay (% of starting absorbance) ([1]; 23CPPA 10 micromolar, 14 minutes): 42 % of starting absorbance | Decay (% of starting absorbance) ([1]; 23CPPA 10 micromolar, 15 minutes): 42 % of starting absorbance | Decay (% of starting absorbance) ([1]; 23CPPA 20 micromolar, 1 minute): 37 % of starting absorbance | Decay (% of starting absorbance) ([1]; 23CPPA 20 micromolar, 2 minutes): 27 % of starting absorbance | Decay (% of starting absorbance) ([1]; 23CPPA 20 micromolar, 3 minutes): 23 % of starting absorbance | Decay (% of starting absorbance) ([1]; 23CPPA 20 micromolar, 4 minutes): 20 % of starting absorbance | Decay (% of starting absorbance) ([1]; 23CPPA 20 micromolar, 5 minutes): 17 % of starting absorbance | Decay (% of starting absorbance) ([1]; 23CPPA 20 micromolar, 6 minutes): 14 % of starting absorbance | Decay (% of starting absorbance) ([1]; 23CPPA 20 micromolar, 7 minutes): 13 % of starting absorbance | Decay (% of starting absorbance) ([1]; 23CPPA 20 micromolar, 8 minutes): 12 % of starting absorbance | Decay (% of starting absorbance) ([1]; 23CPPA 20 micromolar, 9 minutes): 12 % of starting absorbance | Decay (% of starting absorbance) ([1]; 23CPPA 20 micromolar, 10 minutes): 11 % of starting absorbance | Decay (% of starting absorbance) ([1]; 23CPPA 20 micromolar, 11 minutes): 10 % of starting absorbance | Decay (% of starting absorbance) ([1]; 23CPPA 20 micromolar, 12 minutes): 10 % of starting absorbance | Decay (% of starting absorbance) ([1]; 23CPPA 20 micromolar, 13 minutes): 9 % of starting absorbance | Decay (% of starting absorbance) ([1]; 23CPPA 20 micromolar, 14 minutes): 9 % of starting absorbance | Decay (% of starting absorbance) ([1]; 23CPPA 20 micromolar, 15 minutes): 9 % of starting absorbance | Decay (% of starting absorbance) ([1]; 23CPPA 40 micromolar, 1 minute): 20 % of starting absorbance | Decay (% of starting absorbance) ([1]; 23CPPA 40 micromolar, 2 minutes): 20 % of starting absorbance | Decay (% of starting absorbance) ([1]; 23CPPA 40 micromolar, 3 minutes): 3 % of starting absorbance | Decay (% of starting absorbance) ([1]; 23CPPA 40 micromolar, 4 minutes): 1 % of starting absorbance | Decay (% of starting absorbance) ([1]; 23CPPA 40 micromolar, 5 minutes): 0 % of starting absorbance | Decay (% of starting absorbance) ([1]; 23CPPA 40 micromolar, 6 minutes): 0 % of starting absorbance | Decay (% of starting absorbance) ([1]; 23CPPA 40 micromolar, 7 minutes): 0 % of starting absorbance | Decay (% of starting absorbance) ([1]; 23CPPA 40 micromolar, 8 minutes): 0 % of starting absorbance | Decay (% of starting absorbance) ([1]; 23CPPA 40 micromolar, 9 minutes): 0 % of starting absorbance | Decay (% of starting absorbance) ([1]; 23CPPA 40 micromolar, 10 minutes): 0 % of starting absorbance | Decay (% of starting absorbance) ([1]; 23CPPA 40 micromolar, 11 minutes): 0 % of starting absorbance | Decay (% of starting absorbance) ([1]; 23CPPA 40 micromolar, 12 minutes): 0 % of starting absorbance | Decay (% of starting absorbance) ([1]; 23CPPA 40 micromolar, 13 minutes): 0 % of starting absorbance | Decay (% of starting absorbance) ([1]; 23CPPA 40 micromolar, 14 minutes): 0 % of starting absorbance | Decay (% of starting absorbance) ([1]; 23CPPA 40 micromolar, 15 minutes): 0 % of starting absorbance | Ultraviolet (UV) absorption peaks [2]: 211 nm and 283 nm | Absorbance ([2]; wavelength 190 nm): 0.5 | Absorbance ([2]; wavelength 195 nm): 0.75 | Absorbance ([2]; wavelength 197 nm): 1.0 | Absorbance ([2]; wavelength 198 nm): 1.25 | Absorbance ([2]; wavelength 199 nm): 1.5 | Absorbance ([2]; wavelength 205 nm): 2.0 | Absorbance ([2]; wavelength 208 nm): 2.1 | Absorbance ([2]; wavelength 211 nm): 2.2 | Absorbance ([2]; wavelength 212 nm): 2.0 | Absorbance ([2]; wavelength 220 nm): 1.25 | Absorbance ([2]; wavelength 222 nm): 1.0 | Absorbance ([2]; wavelength 232 nm): 0.5 | Absorbance ([2]; wavelength 235 nm): 0.45 | Absorbance ([2]; wavelength 239 nm): 0.43 | Absorbance ([2]; wavelength 243 nm): 0.43 | Absorbance ([2]; wavelength 249 nm): 0.43 | Absorbance ([2]; wavelength 252 nm): 0.43 | Absorbance ([2]; wavelength 256 nm): 0.43 | Absorbance ([2]; wavelength 260 nm): 0.5 | Absorbance ([2]; wavelength 272 nm): 0.75 | Absorbance ([2]; wavelength 283 nm): 0.93 | Absorbance ([2]; wavelength 291 nm): 0.75 | Absorbance ([2]; wavelength 300 nm): 0.5 | Absorbance ([2]; wavelength 308 nm): 0.25 | Absorbance ([2]; wavelength 325 nm): 0 | Dose dependence of brain concentrations [3]: dose proportional
